These are literature values, as cited in patent publication US20170080013A1, “METHODS AND COMPOSITIONS FOR DERMATOLOGICAL USE COMPRSING HYDROCORTISONE ACETATE AND BIOPOLYMERS” (APEX LABORATORIES PRIVATE LIMITED, priority 2015, published 2017).

For `CC(=O)OCC(=O)[C@@]1(O)CC[C@H]2[C@@H]3CCC4=CC(=O)CC[C@]4(C)[C@H]3[C@@H](O)C[C@@]21C` [Hydrocortisone acetate, 11β, 17-dihydroxy-3, 20-dioxopregn-4-en-21-yl acetate], the Solubility in alcohol entry (alcohol) is on record as “slightly soluble”. Besides, the Solubility in chloroform entry (chloroform) is “slightly soluble”. For the same compound, under “water”, the Solubility in water entry was “insoluble”.
